Assay [1] has as its target Rho kinase 2 (ROCK2) (Homo sapiens, UniProt O75116). The assay can be described thus: In vitro Rho kinase inhibitory activity assay (ADP-Glo), ROCK2. The class given is biochemical. The note with it: 10 μM ATP, 25° C., Ki by Cheng-Prusoff. The method, then: (§1) The effectiveness of compounds of the present invention to inhibit Rho kinase activity can be determined in a 10 μl assay containing 40 mM Tris pH7.5, 20 mM MgCl2 0.1 mg/ml BSA, 50 μM DTT and 2.5 μM peptide substrate (Myelin Basic Protein) using an ADP-Glo kit (Promega). Compounds were dissolved in DMSO such that the final concentration of DMSO was 1% in the assay. All reactions/incubations are performed at 25° C. Compound (2 ul) and either Rho kinase 1 or 2 (4 μl) were mixed and incubated for 30 mins. Reactions were initiated by addition of ATP (4 μl) such that the final concentration of ATP in the assay was 10 μM. After a 1 hour incubation 10 μl of ADP-Glo Reagent was added and after a further 45 minute incubation 20 ul of Kinase Detection Buffer was added and the mixture incubated for a further 30 minutes. The luminescent signal was measured on a luminometer. […] Compounds were tested in dose-response format and the inhibition of kinase activity was calculated at each concentration of compound. To determine the IC50 (concentration of compound required to inhibit 50% of the enzyme activity) data were fit to a plot of % inhibition vs Log10 compound concentration using a sigmoidal fit with a variable slope and fixing the maximum to 100% and the minimum to 0%. To determine the Ki values the Cheng-Prusoff equation was utilized (Ki=IC50/(1+[S]/Km)
On the technique in general: ADP-Glo turns the ADP formed in a reaction into a luminescent signal.

For assay [2], the target named is Rho kinase 1 (ROCK1) (Homo sapiens, UniProt Q13464). The assay can be described thus: In vitro Rho kinase inhibitory activity assay (ADP-Glo), ROCK1. It counts as biochemical. Particulars: 10 μM ATP, 25° C., Ki by Cheng-Prusoff. As for the experimental part:
as §1

The term Ki denotes the dissociation constant of the complex between target and ligand, obtained from inhibition or displacement. Low readings indicate higher affinity, high ones lower affinity.

Sequence of Rho kinase 1 (ROCK1) (Q13464 whole entry): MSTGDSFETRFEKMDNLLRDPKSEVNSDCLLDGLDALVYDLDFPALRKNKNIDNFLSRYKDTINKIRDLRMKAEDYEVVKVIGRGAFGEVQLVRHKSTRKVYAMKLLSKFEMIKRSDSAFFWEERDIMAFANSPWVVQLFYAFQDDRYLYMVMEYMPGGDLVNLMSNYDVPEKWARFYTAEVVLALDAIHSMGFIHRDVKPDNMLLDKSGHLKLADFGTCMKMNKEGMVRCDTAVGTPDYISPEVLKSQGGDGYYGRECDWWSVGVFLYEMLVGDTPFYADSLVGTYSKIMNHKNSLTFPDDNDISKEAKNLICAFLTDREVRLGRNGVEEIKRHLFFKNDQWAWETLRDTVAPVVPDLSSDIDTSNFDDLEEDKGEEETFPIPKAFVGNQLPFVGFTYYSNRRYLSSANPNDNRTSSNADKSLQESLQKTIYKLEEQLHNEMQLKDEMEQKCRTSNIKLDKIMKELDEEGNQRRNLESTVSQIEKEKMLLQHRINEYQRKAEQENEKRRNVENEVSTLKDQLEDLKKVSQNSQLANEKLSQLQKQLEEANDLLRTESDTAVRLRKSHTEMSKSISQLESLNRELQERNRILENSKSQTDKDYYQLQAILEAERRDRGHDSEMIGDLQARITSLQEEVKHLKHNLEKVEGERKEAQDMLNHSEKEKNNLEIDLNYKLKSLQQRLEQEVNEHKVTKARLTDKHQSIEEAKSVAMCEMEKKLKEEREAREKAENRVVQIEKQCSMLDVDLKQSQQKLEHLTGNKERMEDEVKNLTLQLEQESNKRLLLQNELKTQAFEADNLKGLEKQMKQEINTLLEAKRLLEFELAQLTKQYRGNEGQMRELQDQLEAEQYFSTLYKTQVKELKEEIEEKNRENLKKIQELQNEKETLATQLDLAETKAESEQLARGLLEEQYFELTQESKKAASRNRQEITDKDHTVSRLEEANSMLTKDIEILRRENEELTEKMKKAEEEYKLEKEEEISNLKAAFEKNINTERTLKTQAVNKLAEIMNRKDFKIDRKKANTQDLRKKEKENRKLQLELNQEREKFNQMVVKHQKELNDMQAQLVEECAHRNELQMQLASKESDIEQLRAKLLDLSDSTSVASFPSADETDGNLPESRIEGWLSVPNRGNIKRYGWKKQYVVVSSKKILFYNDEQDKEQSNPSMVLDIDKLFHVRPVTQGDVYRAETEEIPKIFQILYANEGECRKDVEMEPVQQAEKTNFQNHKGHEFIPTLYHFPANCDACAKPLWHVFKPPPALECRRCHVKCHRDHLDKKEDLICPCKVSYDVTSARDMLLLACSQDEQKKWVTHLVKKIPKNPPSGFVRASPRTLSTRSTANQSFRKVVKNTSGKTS
Sequence of Rho kinase 2 (ROCK2) (O75116 whole entry): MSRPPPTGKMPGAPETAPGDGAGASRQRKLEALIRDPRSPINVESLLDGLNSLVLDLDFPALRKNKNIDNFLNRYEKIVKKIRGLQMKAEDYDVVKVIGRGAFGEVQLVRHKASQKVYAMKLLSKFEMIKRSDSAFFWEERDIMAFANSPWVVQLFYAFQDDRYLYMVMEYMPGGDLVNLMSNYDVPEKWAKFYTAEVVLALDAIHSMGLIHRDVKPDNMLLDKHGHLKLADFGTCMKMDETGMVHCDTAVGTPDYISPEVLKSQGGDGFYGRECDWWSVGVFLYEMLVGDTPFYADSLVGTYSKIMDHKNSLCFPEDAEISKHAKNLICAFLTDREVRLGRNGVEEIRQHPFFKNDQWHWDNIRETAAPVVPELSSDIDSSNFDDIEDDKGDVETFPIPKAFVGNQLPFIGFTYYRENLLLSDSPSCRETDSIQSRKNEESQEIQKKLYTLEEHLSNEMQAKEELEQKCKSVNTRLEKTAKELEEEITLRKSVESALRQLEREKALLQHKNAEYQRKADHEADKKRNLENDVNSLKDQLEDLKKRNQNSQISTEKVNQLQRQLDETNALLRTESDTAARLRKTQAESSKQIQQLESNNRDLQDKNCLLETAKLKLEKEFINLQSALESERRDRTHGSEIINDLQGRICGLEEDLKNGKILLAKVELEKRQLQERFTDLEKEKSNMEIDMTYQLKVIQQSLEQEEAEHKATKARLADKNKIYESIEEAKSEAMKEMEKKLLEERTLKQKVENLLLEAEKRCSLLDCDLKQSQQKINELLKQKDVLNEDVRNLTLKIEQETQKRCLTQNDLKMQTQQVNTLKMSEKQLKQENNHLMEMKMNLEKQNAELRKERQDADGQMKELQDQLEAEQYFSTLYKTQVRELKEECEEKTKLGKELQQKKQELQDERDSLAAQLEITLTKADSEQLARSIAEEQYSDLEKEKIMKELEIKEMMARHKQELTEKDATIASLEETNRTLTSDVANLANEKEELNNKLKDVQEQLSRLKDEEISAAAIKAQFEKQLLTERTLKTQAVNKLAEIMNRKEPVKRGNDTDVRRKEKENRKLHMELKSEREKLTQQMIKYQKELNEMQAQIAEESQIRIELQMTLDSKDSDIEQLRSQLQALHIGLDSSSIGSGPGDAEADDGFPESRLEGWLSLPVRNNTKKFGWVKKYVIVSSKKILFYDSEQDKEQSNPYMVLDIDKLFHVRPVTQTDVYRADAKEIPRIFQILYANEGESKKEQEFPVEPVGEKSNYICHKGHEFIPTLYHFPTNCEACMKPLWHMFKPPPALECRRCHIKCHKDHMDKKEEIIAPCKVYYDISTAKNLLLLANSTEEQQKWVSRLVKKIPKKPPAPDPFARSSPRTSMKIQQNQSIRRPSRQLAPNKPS

`Cc1c[nH]c2nccc(Oc3ccc(CC(CN)C(=O)N4C[C@@H]5C[C@H]4CN5C)cc3F)c12` (single isomer, unassigned) [Example 4B]: the Ki in assay [1] and in assay [2] was under 3 nM in each case.

As to `Cc1c[nH]c2nccc(Oc3ccc(CC(CN)C(=O)N4CCN(Cc5ccccc5)CC4)cc3F)c12` (single isomer, unassigned) [Example 29B, 3-amino-1-(4-benzylpiperazin-1-yl)-2-(3-fluoro-4-((3-methyl-1H-pyrrolo[2,3-b]pyridin-4-yl)oxy)benzyl)propan-1-one], the Ki in assay [1] and in assay [2] was under 3 nM each time.

For the compound `Cc1c[nH]c2nccc(Oc3ccc(C(CN)CC(=O)N4CCN(C5CC5)CC4)cc3)c12` (stereo not shown) [Example 16, 4-amino-1-(4-cyclopropylpiperazin-1-yl)-3-(4-((3-methyl-1H-pyrrolo[2,3-b]pyridin-4-yl)oxy)phenyl)butan-1-one], the Ki in assay [1] and in assay [2] was 3 to 30 nM each time.

Regarding `Cc1c[nH]c2nccc(Oc3ccc(CC(CN)C(=O)N4CCN(Cc5ccccn5)CC4)cc3F)c12` (single isomer, unassigned) [Example 5A, 3-amino-2-(3-fluoro-4-((3-methyl-1H-pyrrolo[2,3-b]pyridin-4-yl)oxy)benzyl)-1-(4-(pyridin-2-ylmethyl)piperazin-1-yl)propan-1-one], the Ki in assay [1] and in assay [2] was 3 to 30 nM each time.

On to `COCCCN1CNC(c2ccc(Oc3ccnc4[nH]cc(C)c34)cc2)CC1=O` (stereo not shown) [Example 39, 3-(3-methoxypropyl)-6-(4-((3-methyl-1H-pyrrolo[2,3-b]pyridin-4-yl)oxy)phenyl)tetrahydropyrimidin-4(1H)-one], for which the Ki in assay [1] and in assay [2] was over 30 nM throughout.

Turning to `N#Cc1c[nH]c2nccc(Oc3ccc(CC(CN)C(=O)N4CCN(Cc5ccccn5)CC4)cc3)c12` (stereo not shown) [Example 49, 4-(4-(2-(aminomethyl)-3-oxo-3-(4-(pyridin-2-ylmethyl)piperazin-1-yl)propyl)phenoxy)-1H-pyrrolo[2,3-b]pyridine-3-carbonitrile], the Ki was under 3 nM in assay [1] and 3 to 30 nM in assay [2].

On to `Cc1c[nH]c2nccc(Oc3ccc(CC(CN)C(=O)N4CCN(Cc5ccccc5)CC4)cc3F)c12` (single isomer, unassigned) [Example 29A, 3-amino-1-(4-benzylpiperazin-1-yl)-2-(3-fluoro-4-((3-methyl-1H-pyrrolo[2,3-b]pyridin-4-yl)oxy)benzyl)propan-l-one], for which the Ki in assay [1] and in assay [2] was 3 to 30 nM throughout.

For `COCCCNC(=O)C(CN)Cc1ccc(Oc2ccnc3[nH]ccc23)cc1` (stereo not shown) [Example 35, 2-(4-((1H-pyrrolo[2,3-b]pyridin-4-yl)oxy)benzyl)-3-amino-N-(3-methoxypropyl)propanamide], the Ki in assay [1] and in assay [2] was 3 to 30 nM each time.

`CNCC(Cc1ccc(Oc2ccnc3[nH]cc(C)c23)cc1)C(=O)N1CCN(Cc2ccccc2)CC1` (stereo not shown) [Example 36, 1-(4-benzylpiperazin-1-yl)-2-(4-((3-methyl-1H-pyrrolo[2,3-b]pyridin-4-yl)oxy)benzyl)-3-(methylamino)propan-1-one]: the Ki in assay [1] and in assay [2] was under 3 nM in each case.

Take `NC(C(=O)Nc1ccc(C(F)(F)F)cc1)c1ccc(Oc2ccnc3[nH]ccc23)cc1` (stereo not shown) [Example 10, 2-(4-((1H-pyrrolo[2,3-b]pyridin-4-yl)oxy)phenyl)-2-amino-N-(4-(trifluoromethyl)phenyl)acetamide]: the Ki in assay [1] and in assay [2] was over 30 nM each time.

As for `Cc1c[nH]c2nccc(Oc3ccc(CC(CN)C(=O)N4CCN(C5CC5)CC4)cc3)c12` (stereo not shown) [Example 2, 3-amino-1-(4-cyclopropylpiperazin-1-yl)-2-(4-((3-methyl-1H-pyrrolo[2,3-b]pyridin-4-yl)oxy)benzyl)propan-1-one], the Ki in assay [1] and in assay [2] was under 3 nM in each case.

In the case of `Cc1c[nH]c2nccc(Oc3ccc(C4CC(=O)N(CCCN(C)C)CN4)cc3)c12` (stereo not shown) [Example 38, 3-(3-(dimethylamino)propyl)-6-(4-((3-methyl-1H-pyrrolo[2,3-b]pyridin-4-yl)oxy)phenyl)tetrahydropyrimidin-4(1H)-one], the Ki in assay [1] and in assay [2] was over 30 nM each time.

Turning to `CN1CCC(N2CNCC(Cc3ccc(Oc4ccnc5[nH]cc(C#N)c45)cc3)C2=O)CC1` (stereo not shown) [Example 47, 4-(4-((1-(1-methylpiperidin-4-yl)-6-oxohexahydropyrimidin-5-yl)methyl)phenoxy)-1H-pyrrolo[2,3-b]pyridine-3-carbonitrile], the Ki in assay [1] and in assay [2] was 3 to 30 nM each time.

With `Cc1c[nH]c2nccc(Oc3ccc(CC(CN(C)C)C(=O)N4CCN(Cc5ccccc5)CC4)cc3)c12` (stereo not shown) [Example 37, 1-(4-benzylpiperazin-1-yl)-3-(dimethylamino)-2-(4-((3-methyl-1H-pyrrolo[2,3-b]pyridin-4-yl)oxy)benzyl)propan-1-one], the Ki in assay [1] and in assay [2] was under 3 nM throughout.

Regarding `Cc1c[nH]c2nccc(Oc3ccc(CC4CNCN(CCCN(C)C)C4=O)cc3F)c12` (stereo not shown) [Example 41, 3-(3-(dimethylamino)propyl)-5-(3-fluoro-4-((3-methyl-1H-pyrrolo[2,3-b]pyridin-4-yl)oxy)benzyl)tetrahydropyrimidin-4(1H)-one], the Ki in assay [1] and in assay [2] was 3 to 30 nM in each case.

As for `Cc1c[nH]c2nccc(Oc3ccc([C@H]4CCN[C@@H]4C(=O)NCCc4ccncc4)cc3)c12` (racemic) [Example 20, rac-(2S,3R)-3-(4-((3-methyl-1H-pyrrolo[2,3-b]pyridin-4-yl)oxy)phenyl)-N-(2-(pyridin-4-yl)ethyl)pyrrolidine-2-carboxamide], the Ki in assay [1] and in assay [2] was under 3 nM throughout.

Consider `Cc1c[nH]c2nccc(Oc3ccc([C@@H]4CN(C)C[C@H]4C(=O)NCc4ccccc4)cc3)c12` (racemic) [Example 50, rac-(3R,4S)-N-benzyl-1-methyl-4-(4-((3-methyl-1H-pyrrolo[2,3-b]pyridin-4-yl)oxy)phenyl)pyrrolidine-3-carboxamide], for which the Ki in assay [1] was under 3 nM; in assay [2], 3 to 30 nM.

With `CN1CCC(NC(=O)C(CN)Cc2ccc(Oc3ccnc4[nH]cc(C#N)c34)cc2)CC1` (stereo not shown) [Example 46, 3-amino-2-(4-((3-cyano-1H-pyrrolo[2,3-b]pyridin-4-yl)oxy)benzyl)-N-(1-methylpiperidin-4-yl)propanamide], the Ki in assay [1] and in assay [2] was under 3 nM throughout.

With `Cc1c[nH]c2nccc(Oc3ccc(CC(CN)C(=O)N4CCN(Cc5ccccn5)CC4)cc3F)c12` (stereo not shown) [Example 5, 3-amino-2-(3-fluoro-4-((3-methyl-1H-pyrrolo[2,3-b]pyridin-4-yl)oxy)benzyl)-1-(4-(pyridin-2-ylmethyl)piperazin-1-yl)propan-1-one], the Ki in assay [1] and in assay [2] was under 3 nM each time.

For the compound `Cc1c[nH]c2nccc(Oc3ccc(CC(CN)C(=O)N4CCN(Cc5ccccc5)CC4)cc3F)c12` (stereo not shown) [Example 29, 3-amino-1-(4-benzylpiperazin-1-yl)-2-(3-fluoro-4-((3-methyl-1H-pyrrolo[2,3-b]pyridin-4-yl)oxy)benzyl)propan-1-one], the Ki in assay [1] and in assay [2] was under 3 nM in each case.

In the case of `CN(C)CCCNC(=O)C(CN)Cc1ccc(Oc2ccnc3[nH]cc(C#N)c23)cc1` (stereo not shown) [Example 44, 3-amino-2-(4-((3-cyano-1H-pyrrolo[2,3-b]pyridin-4-yl)oxy)benzyl)-N-(3-(dimethylamino)propyl)propanamide], the Ki in assay [1] and in assay [2] was under 3 nM in each case.

On to `Cc1c[nH]c2nccc(Oc3ccc(C(N)CC(=O)N4CCN(Cc5ccccc5)CC4)cc3)c12` (single isomer, unassigned) [Example 7A, 3-amino-1-(4-benzylpiperazin-1-yl)-3-(4-((3-methyl-1H-pyrrolo[2,3-b]pyridin-4-yl)oxy)phenyl)propan-1-one], for which the inhibition constant Ki in assay [1] and in assay [2] was under 3 nM each time.

For `CN1C[C@@H]2C[C@H]1CN2C(=O)C(CN)Cc1ccc(Oc2ccnc3[nH]cc(C#N)c23)cc1` (stereo partly drawn) [Example 48, 4-(4-(2-(aminomethyl)-3-((1S,4S)-5-methyl-2,5-diazabicyclo[2.2.1]heptan-2-yl)-3-oxopropyl)phenoxy)-1H-pyrrolo[2,3-b]pyridine-3-carbonitrile], the figures for the inhibitory constant (Ki) in assay [1] and in assay [2] were under 3 nM and 3 to 30 nM, respectively.

For `Cc1c[nH]c2nccc(Oc3ccc([C@H]4CNC[C@@H]4C(=O)NCc4ccccc4)cc3)c12` (single isomer, unassigned) [Example 17B], the inhibition constant Ki in assay [1] and in assay [2] was 3 to 30 nM in each case.

For the compound `NCC(Cc1ccc(Oc2ccnc3[nH]ccc23)cc1)C(=O)NC1CCCCC1` (stereo not shown) [Example 33, 2-(4-((1H-pyrrolo[2,3-b]pyridin-4-yl)oxy)benzyl)-3-amino-N-cyclohexylpropanamide], the Ki in assay [1] and in assay [2] was 3 to 30 nM each time.

With `CN(C)CCCN1CNCC(Cc2ccc(Oc3ccnc4[nH]cc(C#N)c34)cc2)C1=O` (stereo not shown) [Example 45, 4-(4-((1-(3-(dimethylamino)propyl)-6-oxohexahydropyrimidin-5-yl)methyl)phenoxy)-1H-pyrrolo[2,3-b]pyridine-3-carbonitrile], the Ki in assay [1] and in assay [2] was 3 to 30 nM throughout.

For the origin of these results see patent publication US11147812B2, “Tyrosine analogues derivatives as Rho-kinase inhibitors” (Chiesi Farmaceutici S.p.A., priority 2017, dated 2021).
